Results on 2 compounds are retold here after patent publication US6218519A, “Compounds and methods for the selective treatment of cancer and bacterial infections” (Pro-Neuron, Inc., priority 1996, dated 2001).

The subject of one data set is A-375 (human melanoma). The data set is described as follows: Growth inhibition studies, crystal violet staining, 72 hr. The class given is cell-based. To be noted: A-375, 72 h. The text has this: Growth Inhibition Studies. […] cell lines: A-375 (human melanoma), LSl174T (colon carcinoma), ME 180 (cervical carcinoma), SK-OV-3 (ovarian carcinoma), and BT-474 (breast carcinoma) were routinely grown in […] Minimal Essential Medium (MEM, Gibco Inc.) containing 10% fetal bovine serum albumin (Atlanta Biologics). Cells were passaged weekly by trypsinization (Gibco) followed by plating at reduced density (50,000 cells/ml). They were routinely tested and found to be free of mycoplasma contamination. Cells were harvested by trypsinization and plated in 96 well plates at a density of 5,000 per well in 100 μl of MEM culture media. Cells were allowed to adhere by incubation for 24 hr at 37° C. in humidified 5% CO2. The wells containing log-phase cells were treated with complete MEM containing serial dilutions of N-[(4"RS-4"-Ethoxy-4"-β-D-glucopyranurongloxy)butyl]daunorubicin (sodium salt) 10b at concentrations ranging from 10^-5 to 10^-14 M Each well also contained a 50-fold unit excess of β-glucuronidase (i.e., 50 units of enzyme per βmole of substrate). Control reactions were run with 10b in the absence of β-glucuronidase, daunomycin alone, and daunomycin in the presence β-glucuronidase. […] Cell-bound dye was solubilized with Sorenson's Buffer (0.1 M sodium citrate, pH 4.2-ethanol, 1:1, v/v) and the wells were read on an ELISA microplate autoreader at 540 nm. […]

Data set [1] deals with β-Glucuronidase (E. Coli) (EC 3. 2. 1. 31) (Escherichia coli, UniProt P05804). Nature of the data set: in vitro. Conditions: beta-glucuronidase, phosphate buffer, pH 7.4, half-life for the disappearance of 10b.
Chain of β-Glucuronidase (E. Coli) (EC 3. 2. 1. 31) (P05804 whole entry): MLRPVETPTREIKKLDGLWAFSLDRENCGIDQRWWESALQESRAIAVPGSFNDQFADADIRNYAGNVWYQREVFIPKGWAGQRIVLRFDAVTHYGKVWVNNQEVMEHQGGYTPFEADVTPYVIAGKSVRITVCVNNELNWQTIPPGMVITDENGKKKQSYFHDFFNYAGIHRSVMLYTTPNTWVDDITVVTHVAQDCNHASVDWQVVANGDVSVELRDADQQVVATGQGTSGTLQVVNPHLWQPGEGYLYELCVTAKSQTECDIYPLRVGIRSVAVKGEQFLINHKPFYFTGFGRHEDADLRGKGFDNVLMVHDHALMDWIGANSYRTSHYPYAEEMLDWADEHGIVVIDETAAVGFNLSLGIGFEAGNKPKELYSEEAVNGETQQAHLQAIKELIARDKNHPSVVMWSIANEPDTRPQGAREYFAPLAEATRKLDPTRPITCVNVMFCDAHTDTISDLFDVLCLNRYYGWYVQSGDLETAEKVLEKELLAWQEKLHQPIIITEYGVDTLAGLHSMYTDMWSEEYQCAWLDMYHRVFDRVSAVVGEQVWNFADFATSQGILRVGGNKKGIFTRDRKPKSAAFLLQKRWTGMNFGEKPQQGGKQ
In the next data set the test system is carcinoma cells. Conditions: glucuronide versus parent epirubicin; cited from earlier work.

Structures can show the parent of a compound that is named as a salt. Where two headings read alike, the source gives them in different places.

As for `CCOC(CCCN[C@H]1C[C@H](O[C@H]2C[C@](O)(C(C)=O)Cc3c(O)c4c(c(O)c32)C(=O)c2c(OC)cccc2C4=O)O[C@@H](C)[C@H]1O)O[C@@H]1O[C@H](C(=O)O)[C@@H](O)[C@H](O)[C@H]1O` (stereo partly drawn) [Compound 10b, N-[(4"RS)-4"-Ethoxy-4"-(β-D-glucopyranuronyloxy)butyl]daunorubicin (Sodium salt)], the IC50 in the data set on A-375 (human melanoma) (read-out: IC50 (drug concentration that inhibited cell growth by 50%), A375 cell line, in the absence of β-glucuronidase, 72 hr) stood at 200 ng/mL; with A-375 (human melanoma) (read-out: IC50 (drug concentration that inhibited cell growth by 50%), A375 cell line, in the presence of glucuronidase (50 units of enzyme per µmole of substrate), 72 hr), 0.02 ng/mL. Moreover, the half-life (as a rule, the time in which the quantity being followed falls by half) at 100 µM was 8.1 h in data set [1]; 6.9 h in data set [1] (10-fold enzyme excess (10 units of enzyme per µmol of substrate), 0.05 M potassium phosphate buffer pH 7.4); 2 h in data set [1] (20-fold enzyme excess (20 units of enzyme per µmol of substrate), 0.05 M potassium phosphate buffer pH 7.4).
With `COc1cccc2c1C(=O)c1c(O)c3c(c(O)c1C2=O)C[C@@](O)(C(=O)CO)C[C@@H]3O[C@H]1C[C@H](N)[C@@H](O[C@@H]2O[C@H](C(=O)O)[C@@H](O)[C@H](O)[C@H]2O)[C@H](C)O1` [glucuronide of epirubicin], in the data set on carcinoma cells, the “detoxification of the parent drug” value is listed as “up to 1000 fold”.
